Data as given in PMC11234416 (Advanced Science, 2024).

Legend:
rice GSNOR = target: T1, rice GSNOR (Oryza sativa, UniProt Q0DWH1); experiment: surface plasmon resonance (OpenSPR); assay type: binding
T1 construct: gene Os02g0815500

GSNOR (M. oryzae) = target: T2, GSNOR (M. oryzae) (Pyricularia oryzae, UniProt G4N4N6); experiment: biochemical
T2 construct: gene MGG_06011
T2 sequence (G4N4N6 1-381): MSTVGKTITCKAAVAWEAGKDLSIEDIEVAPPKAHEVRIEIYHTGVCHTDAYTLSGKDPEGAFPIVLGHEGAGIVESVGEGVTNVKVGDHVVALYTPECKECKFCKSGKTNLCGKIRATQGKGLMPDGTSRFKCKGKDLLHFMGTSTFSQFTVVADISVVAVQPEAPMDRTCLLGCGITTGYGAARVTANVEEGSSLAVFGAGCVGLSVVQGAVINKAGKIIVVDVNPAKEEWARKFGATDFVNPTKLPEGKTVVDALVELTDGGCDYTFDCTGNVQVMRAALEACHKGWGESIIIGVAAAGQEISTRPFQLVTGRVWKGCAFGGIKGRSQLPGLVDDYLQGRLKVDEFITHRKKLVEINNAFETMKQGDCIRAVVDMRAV

T1 sequence (Q0DWH1 whole entry): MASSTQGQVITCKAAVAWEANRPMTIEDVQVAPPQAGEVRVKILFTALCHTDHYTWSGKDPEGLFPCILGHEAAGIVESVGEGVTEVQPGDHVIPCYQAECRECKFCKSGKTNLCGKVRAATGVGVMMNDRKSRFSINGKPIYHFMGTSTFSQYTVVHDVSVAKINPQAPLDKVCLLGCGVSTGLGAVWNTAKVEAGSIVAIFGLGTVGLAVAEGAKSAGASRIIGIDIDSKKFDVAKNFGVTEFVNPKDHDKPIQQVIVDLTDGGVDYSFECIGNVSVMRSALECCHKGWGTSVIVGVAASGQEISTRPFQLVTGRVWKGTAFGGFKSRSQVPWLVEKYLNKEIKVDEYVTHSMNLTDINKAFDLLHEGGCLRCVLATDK

Cc1cc(C(N)=O)ccc1-n1c(CCC(=O)O)ccc1-c1ccc(-n2ccnc2)cc1 [N6022]
Kd (rice GSNOR): 288 µM
Kd (GSNOR (M. oryzae)): 55.8 µM
